Experimental data from patent publication US6770597B2, “Benzohydrazide derivatives as herbicides and desiccant compositions containing them” (Ishihara Sangyo Kaisha, Ltd., priority 2002, dated 2004).

Legend:
Type in all cases: in vivo
[1] = tested on: lambsquarters (Chenopodium album, CHEAL); experiment: Greenhouse herbicide screen, post-emerge application, phytotoxicity rating; settings: POST emergent, 14 days after application, scale 0-100
In short: (§1)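 Seeds went into sandy loam soil mix, one day before spraying for pre-emergence or 8–21 days before for post-emergence. Test substances in acetone were then sprayed at rates of 15–1000 g ai/ha. Damage was scored 0–100 fourteen days later.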

[2] = tested on: green foxtail (Setaria viridis, SETVI); experiment: as above; settings: POST emergent, 14 days after application, scale 0-100
In short: as §1

[3] = tested on: sicklepod (Cassia obtusifolia, CASOB); experiment: as above; settings: POST emergent, 14 days after application, scale 0-100
In short: as §1

[4] = tested on: cocklebur (Xanthium strumarium, XANST); experiment: as above; settings: POST emergent, 14 days after application, scale 0-100
In short: as §1

[5] = tested on: common ragweed (Ambrosia artemisiifolia L., AMBEL); experiment: as above; settings: POST emergent, 14 days after application, scale 0-100
In short: as §1

[6] = tested on: barnyardgrass (Echinochloa crus-galli, ECHCG); experiment: as above; settings: POST emergent, 14 days after application, scale 0-100
In short: as §1

[7] = tested on: redroot pigweed (Amaranthus retrofiexus, AMARE); experiment: as above; settings: POST emergent, 14 days after application
In short: as §1

[8] = tested on: velvetleaf (Abutilon theophrasti, ABUTH); experiment: as above; settings: POST emergent, 14 days after application, scale 0-100
In short: as §1

[9] = tested on: johnsongrass (Sorghum halepense, SORHA); experiment: as above; settings: POST emergent, 14 days after application, scale 0-100
In short: as §1

[10] = tested on: ivyleaf morningglory (Ipomoea hederacea, IPOHE); experiment: as above; settings: POST emergent, 14 days after application, scale 0-100
In short: as §1

[11] = tested on: large crabgrass (Digitaria sanguinalis, DIGSA); experiment: as above; settings: POST emergent, 14 days after application, scale 0-100
In short: as §1

[12] = tested on: field corn (Zea mays L., var. Dekalb 535, CORN); experiment: Greenhouse herbicide screen, post-emerge application, crop damage rating; settings: POST emergent, 14 days after application, scale 0-100
In short: as §1

[13] = tested on: upland rice (Oryza sp., var.Cocodrie, RICE); experiment: as above; settings: POST emergent, 14 days after application, scale 0-100
In short: as §1

[14] = tested on: field corn (Zea mays L., var. Dekalb 535, CORN); experiment: Greenhouse herbicide screen, pre-emerge application, crop damage rating; settings: PRE emergent, 14 days after application, rating scale 0-100
In short: as §1

[15] = tested on: upland rice (Oryza sp., var.Cocodrie, RICE); experiment: as above; settings: PRE emergent, 14 days after application, rating scale 0-100
In short: as §1

[16] = tested on: lambsquarters (Chenopodium album, CHEAL); experiment: Greenhouse herbicide screen, pre-emerge application, phytotoxicity rating; settings: PRE emergent, 14 days after application, rating scale 0-100
In short: as §1

[17] = tested on: green foxtail (Setaria viridis, SETVI); experiment: as above; settings: PRE emergent, 14 days after application, rating scale 0-100
In short: as §1

[18] = tested on: sicklepod (Cassia obtusifolia, CASOB); experiment: as above; settings: PRE emergent, 14 days after application, rating scale 0-100
In short: as §1

[19] = tested on: cocklebur (Xanthium strumarium, XANST); experiment: as above; settings: PRE emergent, 14 days after application, rating scale 0-100
In short: as §1

[20] = tested on: common ragweed (Ambrosia artemisiifolia L., AMBEL); experiment: as above; settings: PRE emergent, 14 days after application, rating scale 0-100
In short: as §1

[21] = tested on: barnyardgrass (Echinochloa crus-galli, ECHCG); experiment: as above; settings: PRE emergent, 14 days after application, rating scale 0-100
In short: as §1

[22] = tested on: redroot pigweed (Amaranthus retrofiexus, AMARE); experiment: as above; settings: PRE emergent, 14 days after application, rating scale 0-100
In short: as §1

[23] = tested on: velvetleaf (Abutilon theophrasti, ABUTH); experiment: as above; settings: PRE emergent, 14 days after application, rating scale 0-100
In short: as §1

[24] = tested on: johnsongrass (Sorghum halepense, SORHA); experiment: as above; settings: PRE emergent, 14 days after application, rating scale 0-100
In short: as §1

[25] = tested on: ivyleaf morningglory (Ipomoea hederacea, IPOHE); experiment: as above; settings: PRE emergent, 14 days after application, rating scale 0-100
In short: as §1

[26] = tested on: large crabgrass (Digitaria sanguinalis, DIGSA); experiment: as above; settings: PRE emergent, 14 days after application, rating scale 0-100
In short: as §1

[27] = 63 g ai/ha, scale 0-100 (0 no damage, 100 complete death)

C#CCOC(=NN=C(C(C)(C)C)C(C)(C)C)c1cc(-n2c(=O)cc(C(F)(F)F)n(C)c2=O)c(F)cc1Cl [Compound 5-7]
10: crop damage rating RICE ([13]; 63 g ai/ha) | crop damage rating CORN ([14]; 250 g ai/ha)
35: phytotoxicity rating ECHCO ([6]; 63 g ai/ha)
50: phytotoxicity rating SETVI ([2]; 63 g ai/ha) | phytotoxicity rating CASOB ([3]; 63 g ai/ha) | phytotoxicity rating CASOB ([3]; 250 g ai/ha) | phytotoxicity rating AMBEL ([5]; 63 g ai/ha) | phytotoxicity rating DIGSA ([11]; 250 g ai/ha) | phytotoxicity rating CASOB ([18]; 250 g ai/ha) | phytotoxicity rating AMBEL ([20]; 250 g ai/ha) | phytotoxicity rating ABUTH ([23]; 63 g ai/ha) | phytotoxicity rating DIGSA ([26]; 250 g ai/ha)
80: phytotoxicity rating SETVI ([17]; 250 g ai/ha)
55: phytotoxicity rating SETVI ([2]; 250 g ai/ha) | phytotoxicity rating XANST ([4]; 250 g ai/ha) | phytotoxicity rating AMBEL ([5]; 250 g ai/ha) | phytotoxicity rating ECHCO ([6]; 250 g ai/ha)
100: phytotoxicity rating CHEAL ([16]; 63 g ai/ha) | phytotoxicity rating CHEAL ([16]; 250 g ai/ha) | phytotoxicity rating AMARE ([22]; 250 g ai/ha)
99: phytotoxicity rating AMARE ([7]; 250 g ai/ha, scale 0-100) | phytotoxicity rating ABUTH ([23]; 250 g ai/ha)
20: phytotoxicity rating SORHA ([24]; 250 g ai/ha)
0: phytotoxicity rating XANST ([4]; 63 g ai/ha) | phytotoxicity rating SORHA ([9]; 63 g ai/ha) | phytotoxicity rating DIGSA ([11]; 63 g ai/ha) | crop damage rating CORN ([12]; 63 g ai/ha) | crop damage rating RICE ([13]; 250 g ai/ha) | crop damage rating CORN ([14]; 63 g ai/ha) | crop damage rating RICE ([15]; 63 g ai/ha) | crop damage rating RICE ([15]; 250 g ai/ha) | phytotoxicity rating CASOB ([18]; 63 g ai/ha) | phytotoxicity rating XANST ([19]; 63 g ai/ha) | phytotoxicity rating XANST ([19]; 250 g ai/ha) | phytotoxicity rating AMBEL ([20]; 63 g ai/ha) | phytotoxicity rating ECHCG ([21]; 63 g ai/ha) | phytotoxicity rating ECHCG ([21]; 250 g ai/ha) | phytotoxicity rating IPOHE ([25]; 63 g ai/ha) | phytotoxicity rating DIGSA ([26]; 63 g ai/ha)
70: phytotoxicity rating CHEAL ([1]; 63 g ai/ha) | phytotoxicity rating AMARE [7, 27] | phytotoxicity rating ABUTH ([8]; 250 g ai/ha) | phytotoxicity rating IPOHE ([10]; 250 g ai/ha)
60: phytotoxicity rating IPOHE ([10]; 63 g ai/ha) | phytotoxicity rating AMARE ([22]; 63 g ai/ha)
85: phytotoxicity rating CHEAL ([1]; 250 g ai/ha)
30: phytotoxicity rating ABUTH ([8]; 63 g ai/ha) | phytotoxicity rating SETVI ([17]; 63 g ai/ha) | phytotoxicity rating IPOHE ([25]; 250 g ai/ha)
15: phytotoxicity rating SORHA ([9]; 250 g ai/ha) | crop damage rating CORN ([12]; 250 g ai/ha) | phytotoxicity rating SORHA ([24]; 63 g ai/ha)

CC1CCCC(C)N1NC(=O)c1cc(-n2c(=O)cc(C(F)(F)F)n(C)c2=O)c(F)cc1Cl (centres unmarked) [Compound 1-16]
30: phytotoxicity rating DIGSA ([11]; 63 g ai/ha) | phytotoxicity rating DIGSA ([26]; 63 g ai/ha)
100: phytotoxicity rating CHEAL ([1]; 63 g ai/ha) | phytotoxicity rating CHEAL ([1]; 250 g ai/ha) | phytotoxicity rating XANST ([4]; 250 g ai/ha) | phytotoxicity rating AMARE [7, 27] | phytotoxicity rating AMARE ([7]; 250 g ai/ha, scale 0-100) | phytotoxicity rating ABUTH ([8]; 63 g ai/ha) | phytotoxicity rating ABUTH ([8]; 250 g ai/ha) | phytotoxicity rating IPOHE ([10]; 63 g ai/ha) | phytotoxicity rating IPOHE ([10]; 250 g ai/ha) | crop damage rating CORN ([12]; 63 g ai/ha) | crop damage rating CORN ([12]; 250 g ai/ha) | crop damage rating CORN ([14]; 63 g ai/ha) | crop damage rating CORN ([14]; 250 g ai/ha) | phytotoxicity rating CHEAL ([16]; 63 g ai/ha) | phytotoxicity rating CHEAL ([16]; 250 g ai/ha) | phytotoxicity rating XANST ([19]; 250 g ai/ha) | phytotoxicity rating AMARE ([22]; 63 g ai/ha) | phytotoxicity rating AMARE ([22]; 250 g ai/ha) | phytotoxicity rating ABUTH ([23]; 63 g ai/ha) | phytotoxicity rating ABUTH ([23]; 250 g ai/ha) | phytotoxicity rating IPOHE ([25]; 63 g ai/ha) | phytotoxicity rating IPOHE ([25]; 250 g ai/ha)
99: phytotoxicity rating SETVI ([2]; 250 g ai/ha) | phytotoxicity rating CASOB ([3]; 250 g ai/ha) | phytotoxicity rating AMBEL ([5]; 63 g ai/ha) | phytotoxicity rating AMBEL ([5]; 250 g ai/ha) | phytotoxicity rating SORHA ([9]; 250 g ai/ha) | phytotoxicity rating SETVI ([17]; 250 g ai/ha) | phytotoxicity rating CASOB ([18]; 250 g ai/ha) | phytotoxicity rating AMBEL ([20]; 63 g ai/ha) | phytotoxicity rating AMBEL ([20]; 250 g ai/ha) | phytotoxicity rating SORHA ([24]; 250 g ai/ha)
98: phytotoxicity rating CASOB ([3]; 63 g ai/ha) | phytotoxicity rating ECHCO ([6]; 250 g ai/ha) | phytotoxicity rating DIGSA ([11]; 250 g ai/ha) | crop damage rating RICE ([13]; 250 g ai/ha) | crop damage rating RICE ([15]; 250 g ai/ha) | phytotoxicity rating CASOB ([18]; 63 g ai/ha) | phytotoxicity rating ECHCG ([21]; 250 g ai/ha) | phytotoxicity rating DIGSA ([26]; 250 g ai/ha)
45: crop damage rating RICE ([13]; 63 g ai/ha) | crop damage rating RICE ([15]; 63 g ai/ha)
90: phytotoxicity rating SETVI ([2]; 63 g ai/ha) | phytotoxicity rating SETVI ([17]; 63 g ai/ha)
35: phytotoxicity rating ECHCO ([6]; 63 g ai/ha) | phytotoxicity rating ECHCG ([21]; 63 g ai/ha)
75: phytotoxicity rating XANST ([4]; 63 g ai/ha) | phytotoxicity rating SORHA ([9]; 63 g ai/ha) | phytotoxicity rating XANST ([19]; 63 g ai/ha) | phytotoxicity rating SORHA ([24]; 63 g ai/ha)
